Assay results taken from article PMC9226319, “Peripherally restricted transthyretin-based delivery system for probes and therapeutics avoiding opioid-related side effects” (Nature Communications, 2022).
Where “and” joins values, the source holds several entries; their conditions need not be identical. Equal entries are not always repeated. Where two headings read alike, the source gives them in different places.

How the values were obtained:
purified human TTR = purified human TTR (Homo sapiens, UniProt P02766); assay: Fluorescence polarization (FP) binding assay, ligands to TTR in buffer
TTR in human serum = TTR in human serum (Homo sapiens, UniProt P02766); assay: TTR serum fluorescent probe exclusion (FPE) selectivity assay; type: binding; conditions: ligand 10 µM; for %FPE probe fluorescence: human serum, replicates
[1] = biological target: human mu-opioid receptors (Homo sapiens, UniProt P35372); assay: biochemical; type: binding; conditions: binding affinity to mu-opioid receptor (Ki)
[2] = biological target: T1, delta-opioid receptor (human) (Homo sapiens, UniProt P41143); assay: Human delta-opioid receptor (agonist radioligand [3H]-DADLE) binding assay; conditions: for % Inhibition of Control Specific Binding: delta-opioid receptor binding, replicates 1st/2nd
T1 construct: Eurofins Cerep (France)

[3] = biological target: T2, kappa opioid receptor (rat) (Rattus norvegicus, UniProt P34975); assay: Rat kappa-opioid receptor (agonist radioligand [3H] U 69593) binding assay; conditions: for % Inhibition of Control Specific Binding: kappa-opioid receptor binding, replicates 1st/2nd
T2 construct: Eurofins Cerep (France)

male Sprague-Dawley rats [4] = assay: Gastrointestinal (GI) transit (charcoal meal) assays; type: in vivo, rat; conditions: rat, in vivo
[5] = for Concentration: subcutaneous 15.9 μmole/kg, individual animals
male Sprague-Dawley rats [6] = conditions: rat, in vivo
in vivo [7] = conditions: male, Sprague Dawley, rat, sc
in vivo [8] = conditions: male, Sprague Dawley, rat, sc; remark: listed apart in the source
holo-RBP-TTR interaction = holo-RBP-TTR interaction (Homo sapiens, UniProt P02766); assay: Effect on holo-RBP-TTR interaction in human serum (cross-linking, Western blot); conditions: human serum, quantified from gel image, replicates (Supp Fig.14b)

T2 sequence (P34975 whole entry): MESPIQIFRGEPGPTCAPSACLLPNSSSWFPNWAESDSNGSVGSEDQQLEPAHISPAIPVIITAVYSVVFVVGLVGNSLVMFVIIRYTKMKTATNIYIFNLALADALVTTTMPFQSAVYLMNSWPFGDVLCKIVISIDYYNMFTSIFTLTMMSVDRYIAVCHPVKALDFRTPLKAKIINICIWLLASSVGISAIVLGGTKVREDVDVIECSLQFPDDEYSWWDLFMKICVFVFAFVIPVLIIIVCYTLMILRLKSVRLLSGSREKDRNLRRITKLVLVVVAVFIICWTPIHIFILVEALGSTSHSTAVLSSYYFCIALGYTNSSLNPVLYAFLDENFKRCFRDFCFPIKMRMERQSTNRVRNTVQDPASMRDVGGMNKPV
T1 sequence (P41143 whole entry): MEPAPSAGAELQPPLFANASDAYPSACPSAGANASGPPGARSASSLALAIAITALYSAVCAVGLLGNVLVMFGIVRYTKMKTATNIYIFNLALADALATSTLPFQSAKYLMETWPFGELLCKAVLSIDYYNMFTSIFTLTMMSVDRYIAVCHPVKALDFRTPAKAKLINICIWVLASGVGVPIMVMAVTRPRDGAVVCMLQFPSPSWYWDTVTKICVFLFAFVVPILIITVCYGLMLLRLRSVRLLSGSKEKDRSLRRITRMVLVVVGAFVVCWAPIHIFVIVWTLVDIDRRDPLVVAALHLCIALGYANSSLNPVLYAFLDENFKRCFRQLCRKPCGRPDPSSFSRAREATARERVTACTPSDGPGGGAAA
Sequence of human mu-opioid receptors (P35372 whole entry): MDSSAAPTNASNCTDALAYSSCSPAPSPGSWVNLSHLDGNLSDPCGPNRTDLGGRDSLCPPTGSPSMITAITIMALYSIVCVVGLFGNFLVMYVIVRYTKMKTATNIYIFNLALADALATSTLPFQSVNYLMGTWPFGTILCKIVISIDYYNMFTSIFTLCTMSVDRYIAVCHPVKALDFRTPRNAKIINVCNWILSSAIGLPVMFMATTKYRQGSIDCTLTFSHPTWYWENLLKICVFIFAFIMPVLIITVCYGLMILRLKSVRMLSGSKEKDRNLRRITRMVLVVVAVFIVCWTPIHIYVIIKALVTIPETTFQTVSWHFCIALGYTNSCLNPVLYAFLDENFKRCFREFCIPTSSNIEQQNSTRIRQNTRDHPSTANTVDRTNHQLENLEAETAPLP

COc1ccc2c3c1O[C@H]1[C@@H](OCc4cn(CCNCCCCCCOc5cc(OCCCc6c(C)n[nH]c6C)cc(C(=O)O)c5)nn4)CC[C@@]4(O)[C@@H](C2)N(C)CC[C@]314 [AG10-L2-Oxy]
% Fluorescence polarization (mean) (purified human TTR; log [nM] inhibitor 0.990): 100.000% | % Fluorescence polarization (mean) (purified human TTR; log [nM] inhibitor 1.291): 102.820% | % Fluorescence polarization (mean) (purified human TTR; log [nM] inhibitor 1.592): 102.360% | % Fluorescence polarization (mean) (purified human TTR; log [nM] inhibitor 1.893): 99.420% | % Fluorescence polarization (mean) (purified human TTR; log [nM] inhibitor 2.194): 100.060% | % Fluorescence polarization (mean) (purified human TTR; log [nM] inhibitor 2.495): 94.250% | % Fluorescence polarization (mean) (purified human TTR; log [nM] inhibitor 2.796): 77.990% | % Fluorescence polarization (mean) (purified human TTR; log [nM] inhibitor 3.097): 63.730% | % Fluorescence polarization (mean) (purified human TTR; log [nM] inhibitor 3.398): 48.160% | % Fluorescence polarization (mean) (purified human TTR; log [nM] inhibitor 3.699): 35.010% | % Fluorescence polarization (mean) (purified human TTR; log [nM] inhibitor 4.000): 21.890% | % Fluorescence polarization (mean) (purified human TTR; log [nM] inhibitor […]): 0.000% | % TTR occupancy in human serum (TTR in human serum; FPE probe 3.6 µM, 3 h reading relative to probe alone, text mean ± s.d., table replicates): 66.15% and 66.78% and 69.04% and 66.00% | %FPE probe fluorescence (TTR in human serum; time 0.000 h): 0.000% | %FPE probe fluorescence (TTR in human serum; time 0.083 h): 0.549% and 0.762% and -1.844% and -1.645% | %FPE probe fluorescence (TTR in human serum; time 0.250 h): 0.706% and 1.255% and -0.116% and -0.642% | %FPE probe fluorescence (TTR in human serum; time 0.500 h): 2.826% and 3.272% and 3.466% and 3.115% | %FPE probe fluorescence (TTR in human serum; time 1.000 h): 4.537% and 7.078% and 8.406% and 7.892% | %FPE probe fluorescence (TTR in human serum; time 1.250 h): 9.016% and 10.868% and 10.718% and 11.974% | %FPE probe fluorescence (TTR in human serum; time 1.500 h): 11.997% and 15.126% and 11.024% and 13.206% | %FPE probe fluorescence (TTR in human serum; time 1.750 h): 15.076% and 17.659% and 14.693% and 18.815% | %FPE probe fluorescence (TTR in human serum; time 2.000 h): 19.358% and 21.045% and 18.427% and 21.877% | %FPE probe fluorescence (TTR in human serum; time 2.250 h): 25.163% and 23.487% and 22.045% and 24.539% | %FPE probe fluorescence (TTR in human serum; time 2.500 h): 25.806% and 27.529% and 26.249% and 27.302% | %FPE probe fluorescence (TTR in human serum; time 2.750 h): 30.929% and 30.377% and 27.371% and 30.854% | %FPE probe fluorescence (TTR in human serum; time 3.000 h): 33.853% and 33.219% and 30.957% and 33.996% | %FPE probe fluorescence (TTR in human serum; time 3.500 h): 39.372% and 39.356% and 37.472% and 40.606% | %FPE probe fluorescence (TTR in human serum; time 3.750 h): 41.871% and 41.320% and 39.536% and 41.800% | %FPE probe fluorescence (TTR in human serum; time 4.000 h): 43.406% and 44.388% and 42.775% and 45.047% | %FPE probe fluorescence (TTR in human serum; time 4.250 h): 46.096% and 46.093% and 44.165% and 46.692% | %FPE probe fluorescence (TTR in human serum; time 4.500 h): 48.403% and 48.011% and 46.251% and 48.352% | %FPE probe fluorescence (TTR in human serum; time 4.750 h): 49.977% and 52.633% and 49.006% and 51.062% | %FPE probe fluorescence (TTR in human serum; time 5.000 h): 52.730% and 52.156% and 49.883% and 52.401% | %FPE probe fluorescence (TTR in human serum; time 5.250 h): 54.499% and 55.931% and 51.647% and 54.573% | %FPE probe fluorescence (TTR in human serum; time 5.500 h): 56.002% and 55.963% and 54.625% and 55.846% | %FPE probe fluorescence (TTR in human serum; time 5.750 h): 57.400% and 57.044% and 54.205% and 59.081% | %FPE probe fluorescence (TTR in human serum; time 6.000 h): 57.353% and 57.260% and 55.092% and 59.796% | Ki [1]: 13 nM | Ki ([2]; [3H]-DADLE displacement, read-out: binding affinity to delta-opioid receptor (Ki)): 410 nM | % Inhibition of Control Specific Binding ([2]; 1.0E-06 M): 50.5% and 49.9% | % Inhibition of Control Specific Binding ([2]; 1.0E-07 M): 14.8% and 19.2% | % Inhibition of Control Specific Binding ([2]; 1.0E-08 M): 1.2% and -2.9% | % Inhibition of Control Specific Binding ([2]; 1.0E-09 M): -6.1% and -3.7% | % Inhibition of Control Specific Binding ([2]; 2.0E-06 M): 65.5% and 63.4% | Ki ([3]; [3H] U 69593 displacement, read-out: binding affinity to kappa-opioid receptor (Ki)): 120 nM | % Inhibition of Control Specific Binding ([3]; 1.0E-06 M): 78.6% and 74.5% | % Inhibition of Control Specific Binding ([3]; 1.0E-07 M): 32.2% and 33.7% | % Inhibition of Control Specific Binding ([3]; 1.0E-08 M): 1.0% and 5.5% | % Inhibition of Control Specific Binding ([3]; 1.0E-09 M): -3.9% and 9.9% | % Inhibition of Control Specific Binding ([3]; 2.0E-06 M): 85.0% and 84.1% | GI transit (% of vehicle) (male Sprague-Dawley rats [4]): 9.5 ± 2.8% | GI transit as % of vehicle group (male Sprague-Dawley rats [4]): 9.19% and 12.07% and 6.37% and 7.14% and 12.52% | GI transit (% of vehicle) (male Sprague-Dawley rats [4]; sc): 89.5 ± 3.0% | GI transit as % of vehicle group (male Sprague-Dawley rats [4]; sc): 86.23% and 92.53% and 87.21% and 92.83% and 88.77% | k ([5]; rat, single SC dose 16 µmol/kg): 0.15 ± 0.02 h⁻¹ | Concentration ([5]; time 0.03 h): 1980.92 nM and 1419.06 nM and 1694.61 nM | Concentration ([5]; time 0.5 h): 6994.54 nM and 3873.66 nM and 4264.25 nM | Concentration ([5]; time 0.75 h): 6976.39 nM and 5017.1 nM and 7890.95 nM | Concentration ([5]; time 1 h): 6606.43 nM and 5966.57 nM and 8438.91 nM | Concentration ([5]; time 2 h): 5069.67 nM and 5721.19 nM and 8480.16 nM | Concentration ([5]; time 4 h): 2353.83 nM and 3068.56 nM and 2535.48 nM | Concentration ([5]; time 6 h): 732.498 nM and 360.453 nM and 640.073 nM and 668.521 nM | Concentration ([5]; time 8 h): 132.069 nM and 207.97 nM and 223.861 nM | Concentration ([5]; time 12 h): 78.9419 nM and 35.0657 nM and 62.9969 nM and 75.6407 nM | Concentration ([5]; time 24 h): 12.92 nM and 13.41 nM and 14.17 nM | hot plate latency (male Sprague-Dawley rats [6]): 54.2 ± 4.8 s | hot plate latency (male Sprague-Dawley rats [6]; sc): 9.5 ± 0.8 s | Kp (in vivo [7]; percentage CSF to plasma ratio): 0 | Kp (in vivo [7]; percentage brain to plasma ratio): 0 | concentration at 0.03 h (in vivo [8]; 15.9 μmole/kg, Concentration, subcutaneous 15.9 μmole/kg, time 0.03 h, individual animals): 1340 nM | concentration at 0.5 h (in vivo [8]; 15.9 μmole/kg, Concentration, subcutaneous 15.9 μmole/kg, time 0.5 h, individual animals): 4740 nM | concentration at 0.75 h (in vivo [8]; 15.9 μmole/kg, Concentration, subcutaneous 15.9 μmole/kg, time 0.75 h, individual animals): 4800 nM | concentration at 1 h (in vivo [8]; 15.9 μmole/kg, Concentration, subcutaneous 15.9 μmole/kg, time 1 h, individual animals): 6680 nM | concentration at 2 h (in vivo [8]; 15.9 μmole/kg, Concentration, subcutaneous 15.9 μmole/kg, time 2 h, individual animals): 7090 nM | concentration at 4 h (in vivo [8]; 15.9 μmole/kg, Concentration, subcutaneous 15.9 μmole/kg, time 4 h, individual animals): 2750 nM | concentration at 8 h (in vivo [8]; 15.9 μmole/kg, Concentration, subcutaneous 15.9 μmole/kg, time 8 h, individual animals): 196 nM | concentration at 24 h (in vivo [8]; 15.9 μmole/kg, Concentration, subcutaneous 15.9 μmole/kg, time 24 h, individual animals): 18.7 nM | AUC(0-inf) (in vivo [8]; 16 umol/kg): 25.8 ± 3.09 µM·h | CL/F (in vivo [8]; 16 umol/kg): 10.3 mL/min/kg | Vd/F (in vivo [8]; 16 umol/kg): 4.22 ± 0.86 L/kg | half-life (in vivo [8]; 16 umol/kg): 4.68 ± 0.52 h

NC(Cc1cc(I)c(Oc2cc(I)c(O)c(I)c2)c(I)c1)C(=O)O (centres unmarked) [Thyroxine]
%holo RBP binding to TTR (holo-RBP-TTR interaction): 7.1% and 6.9% and 6%

NC(N)=O [Urea]
%holo RBP binding to TTR (holo-RBP-TTR interaction): 98.7% and 127% and 74.3%
